Results as given in ChEMBL document CHEMBL1201862, “PubChem BioAssay data set” (2004).
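Five concentrations, 48 hours, 96-well plates. GI50: concentration for 50% inhibition of growth.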 The source made the active and inactive calls. Cut-off read from the data, not from the text of the source: active = GI50 up to about 1.1 µM and inactive = higher.

Columns and labels:
Experiment in all cases: NCI tumour cell line growth inhibition, 48 h
786-0 = test system: 786-0
A549 = test system: A549
ACHN = test system: ACHN
CCRF-CEM = test system: CCRF-CEM
COLO 205 = test system: COLO 205
DLD-1 = test system: DLD-1
DMS-273 = test system: DMS-273
EKVX = test system: EKVX
HCC 2998 = test system: HCC 2998
HCT-116 = test system: HCT-116
HCT-15 = test system: HCT-15
HL-60 = test system: HL-60
HOP-62 = test system: HOP-62
HT-29 = test system: HT-29
IGROV-1 = test system: IGROV-1
K562 = test system: K562
KM-20L2 = test system: KM-20L2
KM12 = test system: KM12
LOX IMVI = test system: LOX IMVI
LXFL 529 = test system: LXFL 529
M14 = test system: M14
M19-MEL = test system: M19-MEL
MOLT-4 = test system: MOLT-4
Malme-3M = test system: Malme-3M
NCI-H226 = test system: NCI-H226
NCI-H23 = test system: NCI-H23
NCI-H460 = test system: NCI-H460
NCI-H522 = test system: NCI-H522
OVCAR-3 = test system: OVCAR-3
OVCAR-4 = test system: OVCAR-4
OVCAR-8 = test system: OVCAR-8
RXF 393 = test system: RXF 393
SF-268 = test system: SF-268
SF-295 = test system: SF-295
SF-539 = test system: SF-539
SK-MEL-28 = test system: SK-MEL-28
SK-MEL-2 = test system: SK-MEL-2
SK-MEL-5 = test system: SK-MEL-5
SK-OV-3 = test system: SK-OV-3
SN12C = test system: SN12C
SNB-19 = test system: SNB-19
SNB-75 = test system: SNB-75
SNB-78 = test system: SNB-78
SR = test system: SR
SW-620 = test system: SW-620
TK-10 = test system: TK-10
U-251 = test system: U-251
UACC-257 = test system: UACC-257
UACC-62 = test system: UACC-62
UO-31 = test system: UO-31
XF498 = test system: XF498
CAKI-1 = test system: CAKI-1
HOP-92 = test system: HOP-92
OVCAR-5 = test system: OVCAR-5
A498 = test system: A498
DMS-114 = test system: DMS-114
HOP-18 = test system: HOP-18
MCF7 = test system: MCF7
NCI/ADR-RES = test system: NCI/ADR-RES
RPMI-8226 = test system: RPMI-8226

## Cc1nc2c(n1CCN(C)C)C(=O)c1ccccc1C2=O
786-0
  GI50: 28 µM (inactive)
A549
  GI50: 18.8 µM (inactive)
ACHN
  GI50: 14.8 µM (inactive)
CCRF-CEM
  GI50: 17.7 µM (inactive)
COLO 205
  GI50: 4.47 µM (inactive)
DLD-1
  GI50: 13.5 µM (inactive)
DMS-273
  GI50: 13.5 µM (inactive)
EKVX
  GI50: 17.9 µM (inactive)
HCC 2998
  GI50: 19.7 µM (inactive)
HCT-116
  GI50: 14.5 µM (inactive)
HCT-15
  GI50: 12.8 µM
HL-60
  GI50: 5.3 µM (inactive)
HOP-62
  GI50: 26.9 µM (inactive)
HT-29
  GI50: 10.4 µM (inactive)
IGROV-1
  GI50: 13.4 µM (inactive)
K562
  GI50: 18.8 µM (inactive)
KM-20L2
  GI50: 6.31 µM (inactive)
KM12
  GI50: 15.2 µM (inactive)
LOX IMVI
  GI50: 14.9 µM (inactive)
LXFL 529
  GI50: 17.9 µM (inactive)
M14
  GI50: 11.8 µM (inactive)
M19-MEL
  GI50: 2.02 µM (inactive)
MOLT-4
  GI50: 19.7 µM (inactive)
Malme-3M
  GI50: 2.84 µM (inactive)
NCI-H226
  GI50: 31.6 µM (inactive)
NCI-H23
  GI50: 12.1 µM (inactive)
NCI-H460
  GI50: 9.84 µM (inactive)
NCI-H522
  GI50: 5.38 µM (inactive)
OVCAR-3
  GI50: 7.03 µM (inactive)
OVCAR-4
  GI50: 15.6 µM (inactive)
OVCAR-8
  GI50: 17.2 µM (inactive)
RXF 393
  GI50: 19.4 µM (inactive)
SF-268
  GI50: 22 µM (inactive)
SF-295
  GI50: 15.7 µM (inactive)
SF-539
  GI50: 19.1 µM (inactive)
SK-MEL-28
  GI50: 53.6 µM (inactive)
SK-MEL-2
  GI50: 12.2 µM (inactive)
SK-MEL-5
  GI50: 7.45 µM (inactive)
SK-OV-3
  GI50: 45.8 µM (inactive)
SN12C
  GI50: 16.6 µM (inactive)
SNB-19
  GI50: 27.7 µM (inactive)
SNB-75
  GI50: 33.1 µM (inactive)
SNB-78
  GI50: 24.7 µM (inactive)
SR
  GI50: 11.7 µM (inactive)
SW-620
  GI50: 15.2 µM (inactive)
TK-10
  GI50: 38.8 µM (inactive)
U-251
  GI50: 14.5 µM (inactive)
UACC-257
  GI50: 14 µM (inactive)
UACC-62
  GI50: 11.9 µM (inactive)
UO-31
  GI50: 21 µM (inactive)
XF498
  GI50: 18.3 µM (inactive)

## CC1=N/C(=C\c2ccc(C)cc2)C(=O)O1
CAKI-1
  GI50: > 100 µM (inactive)
CCRF-CEM
  GI50: > 100 µM (inactive)
COLO 205
  GI50: > 100 µM (inactive)
DLD-1
  GI50: > 100 µM (inactive)
HCC 2998
  GI50: > 100 µM (inactive)
HCT-15
  GI50: > 100 µM
HOP-92
  GI50: > 100 µM (inactive)
HT-29
  GI50: > 100 µM (inactive)
IGROV-1
  GI50: > 100 µM (inactive)
K562
  GI50: > 100 µM (inactive)
KM-20L2
  GI50: > 100 µM (inactive)
KM12
  GI50: > 100 µM (inactive)
LXFL 529
  GI50: > 100 µM (inactive)
M14
  GI50: > 100 µM (inactive)
M19-MEL
  GI50: > 100 µM (inactive)
MOLT-4
  GI50: > 100 µM (inactive)
Malme-3M
  GI50: > 100 µM (inactive)
NCI-H23
  GI50: > 100 µM (inactive)
NCI-H522
  GI50: > 100 µM (inactive)
OVCAR-3
  GI50: > 100 µM (inactive)
OVCAR-4
  GI50: > 100 µM (inactive)
OVCAR-5
  GI50: > 100 µM (inactive)
OVCAR-8
  GI50: > 100 µM (inactive)
RXF 393
  GI50: > 100 µM (inactive)
SF-295
  GI50: > 100 µM (inactive)
SK-MEL-28
  GI50: > 100 µM (inactive)
SK-MEL-2
  GI50: > 100 µM (inactive)
SK-MEL-5
  GI50: > 100 µM (inactive)
SK-OV-3
  GI50: > 100 µM (inactive)
SN12C
  GI50: > 100 µM (inactive)
SNB-19
  GI50: > 100 µM (inactive)
SNB-78
  GI50: > 100 µM (inactive)
SR
  GI50: > 100 µM (inactive)
SW-620
  GI50: > 100 µM (inactive)
TK-10
  GI50: > 100 µM (inactive)
U-251
  GI50: > 100 µM (inactive)
UACC-62
  GI50: > 100 µM (inactive)
UO-31
  GI50: > 100 µM (inactive)
XF498
  GI50: > 100 µM (inactive)

## COc1cc(/C=C/C(=O)Oc2ccc(NC(C)=O)cc2)ccc1C(=O)O/C=C/c1ccccc1
A498
  GI50: > 100 µM (inactive)
A549
  GI50: > 100 µM (inactive)
CCRF-CEM
  GI50: > 100 µM (inactive)
COLO 205
  GI50: > 100 µM (inactive)
DLD-1
  GI50: > 100 µM (inactive)
DMS-114
  GI50: > 100 µM (inactive)
DMS-273
  GI50: > 100 µM (inactive)
EKVX
  GI50: > 100 µM (inactive)
HCC 2998
  GI50: > 100 µM (inactive)
HCT-116
  GI50: > 100 µM (inactive)
HCT-15
  GI50: > 100 µM
HL-60
  GI50: > 100 µM (inactive)
HOP-18
  GI50: > 100 µM (inactive)
HOP-62
  GI50: > 100 µM (inactive)
HOP-92
  GI50: > 100 µM (inactive)
HT-29
  GI50: > 100 µM (inactive)
IGROV-1
  GI50: > 100 µM (inactive)
K562
  GI50: > 31.6 µM (inactive)
KM-20L2
  GI50: > 100 µM (inactive)
KM12
  GI50: > 100 µM (inactive)
LOX IMVI
  GI50: > 100 µM (inactive)
M19-MEL
  GI50: > 100 µM (inactive)
MCF7
  GI50: > 100 µM (inactive)
MOLT-4
  GI50: 66.8 µM (inactive)
Malme-3M
  GI50: > 100 µM (inactive)
NCI-H226
  GI50: > 100 µM (inactive)
NCI-H23
  GI50: > 100 µM (inactive)
NCI-H460
  GI50: > 100 µM (inactive)
NCI-H522
  GI50: > 100 µM (inactive)
NCI/ADR-RES
  GI50: > 100 µM (inactive)
OVCAR-3
  GI50: > 100 µM (inactive)
OVCAR-4
  GI50: > 100 µM (inactive)
OVCAR-5
  GI50: > 100 µM (inactive)
OVCAR-8
  GI50: > 100 µM (inactive)
RPMI-8226
  GI50: > 100 µM (inactive)
RXF 393
  GI50: > 100 µM (inactive)
SF-268
  GI50: > 100 µM (inactive)
SF-295
  GI50: > 100 µM (inactive)
SF-539
  GI50: > 100 µM (inactive)
SK-MEL-28
  GI50: > 100 µM (inactive)
SK-MEL-2
  GI50: > 100 µM (inactive)
SK-MEL-5
  GI50: > 100 µM (inactive)
SK-OV-3
  GI50: > 100 µM (inactive)
SN12C
  GI50: > 100 µM (inactive)
SNB-19
  GI50: > 100 µM (inactive)
SNB-75
  GI50: > 100 µM (inactive)
SNB-78
  GI50: > 100 µM (inactive)
SW-620
  GI50: > 100 µM (inactive)
U-251
  GI50: > 100 µM (inactive)
UACC-257
  GI50: > 100 µM (inactive)
UACC-62
  GI50: > 100 µM (inactive)
UO-31
  GI50: 76.4 µM (inactive)
XF498
  GI50: > 100 µM (inactive)
